In US11951108B2, “Combination therapy for treating cancer” (Epizyme, Inc., priority 2016, dated 2024):
Like-named read-outs stand apart in the source and are kept apart here.

Columns and labels:
DU4475 [1] = test system: DU4475
OV-90 [2] = test system: OV-90
SUM52PE = assay: In vitro combination study, breast cancer cell line SUM52PE; details: ER/PR −/−, HER2 −, 7 day pre-treatment + 6 day co-treatment
COV504 = details: COV504; 4+3 model
COV434 = details: 4+3 model
BT-20 = assay: In vitro combination study, breast cancer cell line BT-20; details: ER/PR −/−, HER2 −, 7 day pre-treatment + 6 day co-treatment
DU4475 [3] = assay: In vitro combination study, breast cancer cell line DU4475; details: ER/PR −/−, HER2 −, 7 day pre-treatment + 6 day co-treatment
OVISE = assay: In vitro combination study, ovarian cancer cell line OVISE; details: OVISE; 4+3 model
SKOV3 [4] = assay: In vitro combination study, ovarian cancer cell line SKOV3; details: 4+3 model
A2780 = assay: In vitro combination study, ovarian cancer cell line A2780; details: A2780; 4+3 model
HCC1419 = assay: In vitro combination study, breast cancer cell line HCC1419; details: ER/PR −/−, HER2 +, 7 day pre-treatment + 6 day co-treatment
JH)S-4 = assay: In vitro combination study, ovarian cancer cell line JH)S-4; details: 4+3 model
COV644* = assay: In vitro combination study, ovarian cancer cell line COV644; details: COV644*; 7+3 model
TOV112D = assay: In vitro combination study, ovarian cancer cell line TOV112D; details: 4+3 model
KURAMOCHI = assay: In vitro combination study, ovarian cancer cell line KURAMOCHI; details: KURAMOCHI; 4+3 model
MDA-MB-231 = assay: In vitro combination study, breast cancer cell line MDA-MB-231; details: ER/PR −/−, HER2 −, 7 day pre-treatment + 6 day co-treatment
OVMANA [5] = test system: OVMANA
SKOV3 [6] = test system: SKOV3
ES-2 = assay: In vitro combination study, ovarian cancer cell line ES-2; details: 4+3 model
MDA-MB-453 = assay: In vitro combination study, breast cancer cell line MDA-MB-453; format: cell-based; details: ER/PR −/−, HER2 −, 7 day pre-treatment + 6 day co-treatment
MDA-MB-175VII = assay: In vitro combination study, breast cancer cell line MDA-MB-175VII; details: ER/PR +/+, HER2 +, 7 day pre-treatment + 6 day co-treatment
SUM159PT [7] = test system: SUM159PT
HCC1143 [8] = test system: HCC1143
BT549 = assay: In vitro combination study, breast cancer cell line BT549; details: ER/PR −/−, HER2 −, 7 day pre-treatment + 6 day co-treatment
SUM159PT [9] = assay: In vitro combination study, breast cancer cell line SUM159PT; details: ER/PR −/−, HER2 −, 7 day pre-treatment + 6 day co-treatment
TOV21G = assay: In vitro combination study, ovarian cancer cell line TOV21G; format: cell-based; details: 4+3 model
CAOV-3 = assay: In vitro combination study, ovarian cancer cell line CAOV-3; format: cell-based; details: 4+3 model
OV-90 [10] = assay: In vitro combination study, ovarian cancer cell line OV-90; details: OV-90; 4+3 model
HCC1143 [11] = assay: In vitro combination study, breast cancer cell line HCC1143; details: ER/PR −/−, HER2 −, 7 day pre-treatment + 6 day co-treatment
OVMANA [12] = assay: In vitro combination study, ovarian cancer cell line OVMANA; details: OVMANA; 4+3 model
COV362 = assay: In vitro combination study, ovarian cancer cell line COV362; details: COV362; 4+3 model

## Nc1ncn([C@@H]2O[C@H](CO)[C@@H](O)[C@H]2O)c(=O)n1 [Azacitidine]
MDA-MB-468
  Synergy or antagonism of second agent with tazemetostat (IC50 shift of second agent): C (key: B: Synergy > 4× IC50 shift; Synergy > 2× IC50 shift; No Effect; Antagonism; X: Not Tested)
HCC38
  Synergy or antagonism of second agent with tazemetostat (IC50 shift of second agent): C (key: B: Synergy > 4× IC50 shift; Synergy > 2× IC50 shift; No Effect; Antagonism; X: Not Tested)
DU4475 [1]
  Synergy or antagonism of second agent with tazemetostat (IC50 shift of second agent): C (key: B: Synergy > 4× IC50 shift; Synergy > 2× IC50 shift; No Effect; Antagonism; X: Not Tested)
OV-90 [2]
  Synergy or antagonism of second agent with tazemetostat (IC50 shift of second agent): C (key: B: Synergy > 4× IC50 shift; Synergy > 2× IC50 shift; No Effect; Antagonism; X: Not Tested)
SUM52PE
  Synergy or antagonism of second agent with tazemetostat (IC50 shift of second agent): C (Synergy > 2× IC50 shift)

## Nc1cc(C(F)(F)F)c(-c2cc(N3CCOCC3)nc(N3CCOCC3)n2)cn1 [BKM120]
COV504
  Synergy or antagonism of second agent with tazemetostat (IC50 shift of second agent): C (Synergy > 2× IC50 shift)
COV434
  Synergy or antagonism of second agent with tazemetostat (IC50 shift of second agent): C (Synergy > 2× IC50 shift)
BT-20
  Synergy or antagonism of second agent with tazemetostat (IC50 shift of second agent): C (Synergy > 2× IC50 shift)
DU4475 [3]
  Synergy or antagonism of second agent with tazemetostat (IC50 shift of second agent): A (Antagonism)
OVISE
  Synergy or antagonism of second agent with tazemetostat (IC50 shift of second agent): C (Synergy > 2× IC50 shift)
SKOV3 [4]
  Synergy or antagonism of second agent with tazemetostat (IC50 shift of second agent): C (Synergy > 2× IC50 shift)
A2780
  Synergy or antagonism of second agent with tazemetostat (IC50 shift of second agent): C (Synergy > 2× IC50 shift)
HCC1419
  Synergy or antagonism of second agent with tazemetostat (IC50 shift of second agent): C (Synergy > 2× IC50 shift)
JH)S-4
  Synergy or antagonism of second agent with tazemetostat (IC50 shift of second agent): C (Synergy > 2× IC50 shift)
COV644*
  Synergy or antagonism of second agent with tazemetostat (IC50 shift of second agent): C (Synergy > 2× IC50 shift)
TOV112D
  Synergy or antagonism of second agent with tazemetostat (IC50 shift of second agent): C (Synergy > 2× IC50 shift)
KURAMOCHI
  Synergy or antagonism of second agent with tazemetostat (IC50 shift of second agent): C (Synergy > 2× IC50 shift)

## Cc1nc(Nc2ncc(C(=O)Nc3c(C)cccc3Cl)s2)cc(N2CCN(CCO)CC2)n1 [Dasatinib]
HCC1569
  Synergy or antagonism of second agent with tazemetostat (IC50 shift of second agent): C (key: B: Synergy > 4× IC50 shift; Synergy > 2× IC50 shift; No Effect; Antagonism; X: Not Tested)
SUM52PE
  Synergy or antagonism of second agent with tazemetostat (IC50 shift of second agent): B (Synergy > 4× IC50 shift)
MDA-MB-231
  Synergy or antagonism of second agent with tazemetostat (IC50 shift of second agent): C (Synergy > 2× IC50 shift)

## COc1cccc2c1C(=O)c1c(O)c3c(c(O)c1C2=O)C[C@@](O)(C(=O)CO)C[C@@H]3O[C@H]1C[C@H](N)[C@H](O)[C@H](C)O1 [Doxorubicin]
OVMANA [5]
  Synergy or antagonism of second agent with tazemetostat (IC50 shift of second agent): C (key: B: Synergy > 4× IC50 shift; Synergy > 2× IC50 shift; No Effect; Antagonism; X: Not Tested)
RMUGS*
  Synergy or antagonism of second agent with tazemetostat (IC50 shift of second agent): B (key: B: Synergy > 4× IC50 shift; Synergy > 2× IC50 shift; No Effect; Antagonism; X: Not Tested)
SKOV3 [6]
  Synergy or antagonism of second agent with tazemetostat (IC50 shift of second agent): B (key: B: Synergy > 4× IC50 shift; Synergy > 2× IC50 shift; No Effect; Antagonism; X: Not Tested)
ES-2
  Synergy or antagonism of second agent with tazemetostat (IC50 shift of second agent): C (Synergy > 2× IC50 shift)
COV644*
  Synergy or antagonism of second agent with tazemetostat (IC50 shift of second agent): C (Synergy > 2× IC50 shift)

## Cc1cc(Nc2cc(N3CCN(C)CC3)nc(/C=C/c3ccccc3)n2)n[nH]1 [ENMD-2076]
MDA-MB-453
  Synergy or antagonism of second agent with tazemetostat (IC50 shift of second agent): A (Antagonism)
SUM52PE
  Synergy or antagonism of second agent with tazemetostat (IC50 shift of second agent): C (Synergy > 2× IC50 shift)
MDA-MB-175VII
  Synergy or antagonism of second agent with tazemetostat (IC50 shift of second agent): C (Synergy > 2× IC50 shift)

## COc1cc([C@@H]2c3cc4c(cc3[C@@H](O[C@@H]3O[C@@H]5CO[C@@H](C)O[C@H]5[C@H](O)[C@H]3O)[C@H]3COC(=O)[C@H]23)OCO4)cc(OC)c1O [Etoposide]
SUM159PT [7]
  Synergy or antagonism of second agent with tazemetostat (IC50 shift of second agent): C (key: B: Synergy > 4× IC50 shift; Synergy > 2× IC50 shift; No Effect; Antagonism; X: Not Tested)
HCC1143 [8]
  Synergy or antagonism of second agent with tazemetostat (IC50 shift of second agent): C (key: B: Synergy > 4× IC50 shift; Synergy > 2× IC50 shift; No Effect; Antagonism; X: Not Tested)

## CO[C@H]1C[C@@H]2CC[C@@H](C)[C@@](O)(O2)C(=O)C(=O)N2CCCC[C@H]2C(=O)O[C@H]([C@H](C)C[C@@H]2CC[C@@H](OCCO)[C@H](OC)C2)CC(=O)[C@H](C)/C=C(\C)[C@@H](O)[C@@H](OC)C(=O)[C@H](C)C[C@H](C)/C=C/C=C/C=C/1C [Everolimus]
BT549
  Synergy or antagonism of second agent with tazemetostat (IC50 shift of second agent): A (Antagonism)
HCC1419
  Synergy or antagonism of second agent with tazemetostat (IC50 shift of second agent): C (Synergy > 2× IC50 shift)
SUM159PT [9]
  Synergy or antagonism of second agent with tazemetostat (IC50 shift of second agent): C (Synergy > 2× IC50 shift)
MDA-MB-175VII
  Synergy or antagonism of second agent with tazemetostat (IC50 shift of second agent): C (Synergy > 2× IC50 shift)

## Cc1sc2c(c1C)C(c1ccc(Cl)cc1)=N[C@@H](CC(=O)OC(C)(C)C)c1nnc(C)n1-2 [JQ1]
TOV21G
  Synergy or antagonism of second agent with tazemetostat (IC50 shift of second agent): C (Synergy > 2× IC50 shift)
CAOV-3
  Synergy or antagonism of second agent with tazemetostat (IC50 shift of second agent): B (Synergy > 4× IC50 shift)
COV504
  Synergy or antagonism of second agent with tazemetostat (IC50 shift of second agent): C (Synergy > 2× IC50 shift)
ES-2
  Synergy or antagonism of second agent with tazemetostat (IC50 shift of second agent): C (Synergy > 2× IC50 shift)
OV-90 [10]
  Synergy or antagonism of second agent with tazemetostat (IC50 shift of second agent): C (Synergy > 2× IC50 shift)
SKOV3 [4]
  Synergy or antagonism of second agent with tazemetostat (IC50 shift of second agent): B (Synergy > 4× IC50 shift)
A2780
  Synergy or antagonism of second agent with tazemetostat (IC50 shift of second agent): B (Synergy > 4× IC50 shift)
HCC1143 [11]
  Synergy or antagonism of second agent with tazemetostat (IC50 shift of second agent): C (Synergy > 2× IC50 shift)
HCC1419
  Synergy or antagonism of second agent with tazemetostat (IC50 shift of second agent): C (Synergy > 2× IC50 shift)
TOV112D
  Synergy or antagonism of second agent with tazemetostat (IC50 shift of second agent): C (Synergy > 2× IC50 shift)

## Nc1ccccc1NC(=O)c1ccc(CNc2nccc(-c3cccnc3)n2)cc1 [Mocetinostat]
COV434
  Synergy or antagonism of second agent with tazemetostat (IC50 shift of second agent): C (Synergy > 2× IC50 shift)
OV-90 [10]
  Synergy or antagonism of second agent with tazemetostat (IC50 shift of second agent): C (Synergy > 2× IC50 shift)
SKOV3 [4]
  Synergy or antagonism of second agent with tazemetostat (IC50 shift of second agent): B (Synergy > 4× IC50 shift)
OVMANA [12]
  Synergy or antagonism of second agent with tazemetostat (IC50 shift of second agent): C (Synergy > 2× IC50 shift)
COV362
  Synergy or antagonism of second agent with tazemetostat (IC50 shift of second agent): C (Synergy > 2× IC50 shift)
TOV112D
  Synergy or antagonism of second agent with tazemetostat (IC50 shift of second agent): C (Synergy > 2× IC50 shift)
KURAMOCHI
  Synergy or antagonism of second agent with tazemetostat (IC50 shift of second agent): C (Synergy > 2× IC50 shift)
